Assays:
[1] = Induction of anti-CD3 antibodies-stimulated human T cell activation at 1 uM assessed fold increase in CD25 expression measured by ELISA assay; assay type: functional, T cell line
[2] = Induction of activation of human CD56+ CD3- NK cells co-cultured with human K562 cells in 5:1 ratio and assessed as increase in MIP1beta secretion at 1 uM measured by ELISA assay; assay type: functional, Natural killer cell
[3] = Induction of anti-CD3 antibodies-stimulated human exhausted CD8+ T cell activation assessed fold increase in CTLA4 expression measured by flow cytometry analysis; assay type: functional, T cell line
[4] = Induction of anti-CD3/CD28 antibodies-stimulated human CD4+ T cell activation at 1.11 uM assessed fold increase in cell proliferation measured by flow cytometry analysis; assay type: functional, T cell line
[5] = Induction of anti-CD3 antibodies-stimulated human CD8+ T cell activation in immunocompetent mouse assessed fold increase in CD25 expression at 90 mg/kg, ip administered thrice a day; assay type: functional
[6] = Induction of activation of human CD56+ CD3- NK cells co-cultured with human K562 cells in 5:1 ratio and assessed as increase in IFN-gamma secretion at 10 uM measured by ELISA assay; assay type: functional, Natural killer cell
[7] = Induction of anti-CD3 antibodies-stimulated human T cell activation at 10 uM assessed fold increase in IFN-gamma secretion measured by ELISA assay; assay type: functional, T cell line
[8] = Induction of anti-CD3 antibodies-stimulated human T cell activation at 8 uM assessed fold increase in IL-2 secretion measured by ELISA assay; assay type: functional, T cell line
[9] = Induction of anti-CD3/CD28 antibodies-stimulated human T cell activation at 10 uM assessed fold increase in IFN-gamma secretion measured by ELISA assay; assay type: functional, T cell line
[10] = Induction of anti-CD3 antibodies-stimulated human CD4+ T cell activation at 1.11 uM assessed fold increase in CD69 expression measured by flow cytometry analysis; assay type: functional, T cell line
[11] = Induction of anti-CD3 antibodies-stimulated human T cell activation at 8 uM assessed fold increase in CD25 expression measured by ELISA assay; assay type: functional, T cell line
[12] = Induction of allogenic human T cell activation at 10 uM assessed fold increase in cell proliferation; assay type: functional, T cell line
[13] = Induction of activation of human CD56+ CD3- NK cells co-cultured with human K562 cells in 1:1 ratio and assessed as increase in TNF-alpha secretion at 1 uM measured by ELISA assay; assay type: functional, Natural killer cell
[14] = Induction of anti-CD3 antibodies-stimulated human CD4+ T cell activation in immunocompetent mouse assessed fold increase in CD25 expression at 90 mg/kg, ip administered twice a day; assay type: functional
[15] = Induction of anti-CD3/CD28 antibodies-stimulated human anergic T cell activation at 1.11 uM assessed fold increase in IFN-gamma secretion measured by ELISA assay; assay type: functional, T cell line
[16] = Induction of activation of human CD56+ CD3- NK cells co-cultured with human K562 cells in 1:1 ratio and assessed as increase in IFN-gamma secretion at 1 uM measured by ELISA assay; assay type: functional, Natural killer cell
[17] = Induction of anti-CD3/CD28 antibodies-stimulated human T cell activation at 0.3 uM assessed fold increase in CD25 expression measured by ELISA assay; assay type: functional, T cell line
[18] = Induction of anti-CD3/CD28 antibodies-stimulated human T cell activation at 1 uM assessed fold increase in CD25 expression measured by ELISA assay; assay type: functional, T cell line
[19] = Induction of anti-CD3/CD28 antibodies-stimulated human CD8+ T cell activation at 10 uM assessed fold increase in cell proliferation measured by flow cytometry analysis; assay type: functional, T cell line
[20] = Induction of anti-CD3/CD28 antibodies-stimulated human T cell activation at 10 uM assessed fold increase in TNF-alpha secretion measured by ELISA assay; assay type: functional, T cell line
[21] = Induction of activation of human CD56+ CD3- NK cells co-cultured with human K562 cells in 5:1 ratio and assessed as increase in TNF-alpha secretion at 10 uM measured by ELISA assay; assay type: functional, Natural killer cell
[22] = Induction of activation of human CD56+ CD3- NK cells co-cultured with human K562 cells in 5:1 ratio and assessed as increase in IFN-gamma secretion at 1 uM measured by ELISA assay; assay type: functional, Natural killer cell
[23] = Induction of activation of human CD56+ CD3- NK cells co-cultured with human K562 cells in 5:1 ratio and assessed as increase in MIP1beta secretion at 10 uM measured by ELISA assay; assay type: functional, Natural killer cell
[24] = Induction of activation of human CD56+ CD3- NK cells co-cultured with human K562 cells in 1:1 ratio and assessed as increase in MIP1beta secretion at 10 uM measured by ELISA assay; assay type: functional, Natural killer cell
[25] = Induction of anti-CD3/CD28 antibodies-stimulated human T cell activation at 0.3 uM assessed fold increase in IL-2 secretion measured by ELISA assay; assay type: functional, T cell line
[26] = Induction of activation of human CD56+ CD3- NK cells co-cultured with human K562 cells in 1:1 ratio and assessed as increase in MIP1beta secretion at 1 uM measured by ELISA assay; assay type: functional, Natural killer cell
[27] = Induction of activation of human CD56+ CD3- NK cells co-cultured with human K562 cells in 5:1 ratio and assessed as increase in TNF-alpha secretion at 1 uM measured by ELISA assay; assay type: functional, Natural killer cell

Row | Compound | fold change (FC) [1] | fold change (FC) [2] | fold change (FC) [3] | fold change (FC) [4] | fold change (FC) [5] | fold change (FC) [6] | fold change (FC) [8] | fold change (FC) [10] | fold change (FC) [11] | fold change (FC) [12] | fold change (FC) [13] | fold change (FC) [14] | fold change (FC) [15] | fold change (FC) [16] | fold change (FC) [17] | fold change (FC) [18] | fold change (FC) [19] | fold change (FC) [21] | fold change (FC) [22] | fold change (FC) [23] | further results
1 | C[C@H](Sc1nncn1C)c1cccc(NC(=O)c2cccc(C(F)(F)F)n2)c1 | 0.601 | <=1 | <=1.4 | <=2 | 1.51 | 2.01 | >=0.201 | <=1.2 | >=1.001 | <=2 | 1.01 | 1 | 2.51 | 1.01 | 1.31 | 1.31 | <=2 | 2.01 | 1.01 | 1.01 | fold change (FC) [7]: <=2; fold change (FC) [9]: <=2; fold change (FC) [20]: 2.01; fold change (FC) [24]: 1.01; fold change (FC) [25]: 1.01; fold change (FC) [26]: 1.01; fold change (FC) [27]: 1.01
2 | C[C@@H](Sc1nncn1C)c1cccc(NC(=O)c2cccc(C(F)(F)F)n2)c1 | <=0.6 | <=1 | <=1.4 | 3.01 | 1 | 1.01 | 0.051 | >1.601 | 0.601 | <=2 | 1.01 | 1.51 | <=2.5 | <=1 | 1.01 | 1.01 | >4 | <=1 | <=1 | 1.01 | fold change (FC) [24]: 1.01; fold change (FC) [25]: 1.01; fold change (FC) [26]: 1.01; fold change (FC) [27]: <=1

Reference: ChEMBL document CHEMBL5050844 (2019)
